Patent US20250281496A1, “METHODS OF TREATING NEUROPATHY USING FORETINIB AND COMPOSITIONS THEREOF” (INDIANA UNIVERSITY RESEARCH AND TECHNOLOGY CORPORATION, priority 2022, published 2025)

What was measured:
[1] = Potential side effects and body weight under daily oral Foretinib in STZ-diabetic mice; assay type: in vivo
Method: The primary objective of these experiments was to determine the effect of oral Foretinib on cutaneous innervation density in an experimental diabetic neuropathy. The numbers of animals needed for these experiments were determined by power analysis based on preliminary experiments assessing the cutaneous innervation density in diabetic and non-diabetic mice. A 50% increased nerve fiber density compared to the diabetic control was considered scientifically relevant, requiring a minimum of n=5 animals per group to achieve a power of 0.9 when assuming a standard deviation (SD) of 0.01 for all groups (normally distributed, two-sided). Animals were randomly allocated to experimental groups prior to induction of diabetes and the investigators were blinded during outcome assessments. Two experimental animals allocated to the Foretinib treated group were excluded from the experiment after not responding to the STZ injections. No outliers were excluded from the analysis. After five weeks, the experiment was terminated because 4 of 8 animals reached a predefined humane endpoint of greater than 15% weight loss compared to their pre-diabetic weight. The scheduled experimental endpoint was 12 weeks post-STZ injection. […]

[2] = system: human iPSC-derived cultured MNs; assay: Thapsigargin- and Tunicamycin-induced death of human iPSC-derived motor neurons; assay type: cell-based; settings: 1 μM Thapsigargin or 1 μM Tunicamycin, 0.5 uM Foretinib, 48 hrs
Method: A) Rat sympathetic neurons grown in compartmented cultures for one week in the presence of NGF were switched into the indicated conditions for 48 h and immunostained for βIII-tubulin (white). Schematics on the left show the configurations used. In the top panels, NGF was maintained in all compartments. In the center and bottom panels, NGF was withdrawn from all compartments. At the bottom panel and 500 nM foretinib (Foret) added to one of the sides and the center compartment. Fluorescence images show βIII-tubulin-positive axons in the sides compartment. At the right, enlarged images of the axons per condition. While the NGF deprived neurons degenerated (axonal beading and degradation in the central panel), Foretinib supplemented (lower panel) axons kept growing Red arrow at the top of the image indicates the distance of the axonal extension during 48 h since NGF withdrawal. Size bar: […].B) MNs were differentiated from healthy human iPS (Line ID 1016A)^62 as described^63. 3 day old MNs were treated with either 1 μM of Thapsigargin (Thaps) or 1 μM Tunicamycin (Tuni) and/or with either 0.5 uM of Foretinib. […] C) Quantitative representation of the results as in B. Error bars represent standard error; *p<0.05; ***p<0.005; t-test. […] E) Quantitative representation of changes in mouse body weight in dependence of the indicated IP daily doses of Foretinib.

[3] = mouse, in vivo, ip, 20 days
Method: A) Quantitative representation of changes in mouse body weight in dependence of the indicated IP daily doses of Foretinib (n=2 per dose). B) Changes in mouse blood plasma concentration of 5 mg/kg IP injected Foretinib during 48 hours after a single injection (n=3).
It is expected that Foretinib will protect against the diabetes-induced loss of terminal axons and ensheathing SC. In our previous study, 30 mg/kg of foretinib was administered via daily gavage for a course of 5 weeks. Although reported as non-toxic, at this dose the drug, along with a strong neuroprotective effect, caused lethargic behavior, ruffled fur and weight loss requiring early termination of the experiment. Due to the substantial prevalence of type 2 diabetes, we will examine the effect of foretinib treatment on type 2 diabetic mice (db/db). To define the maximal tolerable dose, we treated wt mice by daily intraperitoneal (IP) injection of several various dosages of foretinib for 20 days, while assessing the mice weight and behavior. […] Next, to define the pharmacokinetic (PK) characteristics of the drug, we performed a mass spectrometry analysis of blood samples from wt mice treated with 5 mg/kg (n=3 mice per dose per time point). We observed that IP injection of 5 mg/kg of foretinib generated nearly 100 ng/ml blood concentration during first 4 hours, declining by 4 ng/ml/hour (FIG. 7B).

[4] = system: sympathetic and sensory neurons; assay: Neuroprotection in primary culture of sympathetic and sensory neurons (trophic deprivation); assay type: cell-based
[5] = system: sympathetic and sensory neurons; settings: in vitro, previously shown (ref 17); cited from earlier work

## COc1cc2c(Oc3ccc(NC(=O)C4(C(=O)Nc5ccc(F)cc5)CC4)cc3F)ccnc2cc1OCCCN1CCOCC1 [Foretinib, N1-[3-Fluoro-4-({6-methoxy-7-[3-(morpholin-4-yl)propoxy]quinolin-4-yl}oxy)phenyl]-N′1-(4-fluorophenyl)cyclopropane-1,1-dicarboxamide]
[1]; 30 mg/kg oral daily, 5 weeks post-injection, group mean
  relative body weight change versus pre-diabetic weight: < −15%
[1]; 30 mg/kg orally via daily gavage, after four weeks of daily treatment
  signs of increased distress: lethargic behavior, ruffled fur, and weight loss
[2]
  rescue of ER-stressor induced motor neuron death: rescued Thapsigargin-and Tunicamycin-induced death
[3]
  maximal tolerable dose not affecting behavior and body weight: 5 mg/kg
[4]
  effective neuroprotective concentration: > 100 nM
[5]
  axonal die-back under trophic deprivation: prevents axonal die-back mechanisms
